For one assay, the target named is T1, c-Rel protein (Homo sapiens, UniProt Q04864).
T1 sequence (Q04864 1-619): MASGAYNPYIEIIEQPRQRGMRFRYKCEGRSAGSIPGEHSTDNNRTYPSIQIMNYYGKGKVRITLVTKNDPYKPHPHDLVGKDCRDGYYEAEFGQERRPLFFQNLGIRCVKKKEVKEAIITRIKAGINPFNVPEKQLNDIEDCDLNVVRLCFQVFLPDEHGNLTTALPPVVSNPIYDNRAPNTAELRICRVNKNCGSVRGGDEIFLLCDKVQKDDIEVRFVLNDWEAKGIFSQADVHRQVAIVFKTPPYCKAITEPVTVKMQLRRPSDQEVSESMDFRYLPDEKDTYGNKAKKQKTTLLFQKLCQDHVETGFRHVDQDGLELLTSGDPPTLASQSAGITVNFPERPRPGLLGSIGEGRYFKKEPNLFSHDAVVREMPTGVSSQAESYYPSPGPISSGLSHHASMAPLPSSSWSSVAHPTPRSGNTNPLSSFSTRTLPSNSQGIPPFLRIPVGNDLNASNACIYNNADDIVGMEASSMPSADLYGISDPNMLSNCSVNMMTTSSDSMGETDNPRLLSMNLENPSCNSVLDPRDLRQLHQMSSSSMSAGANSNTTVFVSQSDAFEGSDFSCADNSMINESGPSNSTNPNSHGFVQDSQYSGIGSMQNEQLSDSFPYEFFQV
Description: Electrophoretic Mobility Shift Assay (EMSA), c-Rel binding to CD28RE oligonucleotide. Particulars: 10 nM c-Rel protein. As to the method: DNA binding reaction (20 μL) was carried out in 1×DNA Binding Buffer (10 mM Tris, 40 mM NaCl, 1 mM EDTA, 4% glycerol) with 10 nM c-Rel protein and 0.5 ng phosphor-labeled CD28RE oligonucleotide for 10 minutes at room temperature in 96-well plates. Test compounds, in serial dilutions, were added into each well, and further incubated for 15 minutes before loading onto native 5% polyacrylamide gel. Electrophoresis proceeded for 2.5 hours at 160V. Radioactive signals were quantified using Phospho-Imager. IC50 of compounds of example 1 to 75 were determined by quantifying the intensity of Rel/NF-κB inhibition in EMSA using phospho-imager. An example of EMSA data of the present invention is shown for compound 6 in FIG. 2.
Background: In EMSA bound probe runs differently from free probe, usually more slowly.

A further assay has as its system NF-κB. Briefly: NF-κB GFP assay in NFκB/Jurkat/GFP transcriptional reporter cells stimulated with TNF-α. Format: cell-based. Particulars: Homo sapiens, TNF-α 5 ng/ml, 24 hours, read-out: NF-KB GFP IC50. Here is the method: NFκB/Jurkat/GFP transcriptional reporter cell line was obtained from SBI System Biosciences. NF-κB/Jurkat/GFP™ Reporter cells (5×10^5 cells) were plated at a concentration of 1 million cells/ml into each well of a 24-well plate. TNF-α (5 ng/ml) was added. Compounds were added via serial dilutions to corresponding wells. After 24 hours, 100 μl of the cells were transferred to a well of a Costar® UV plate (96 well, No lid, w/UV Transparent Flat Bottom, Corning, N.Y., Cat #3635) and the intensity of GFP fluorescence was measured (Excitation 485+/−20, Emission 528+/−20) in a Synergy™ HT Multi-Detection Microplate Reader (BioTech, Winooski, Vt.). The intensities of GFP measured were plotted against the […].

The test system of another assay is Capan-1. Briefly: CellTiter-Glo IG50, Example 8, Capan-1. The format is cell-based. The following applies: Homo sapiens, Capan-1, 72 hours. As to the method:
(§1) Various pancreatic, liver, colon, breast, and stomach cancer cell lines were exposed to the NF-κB inhibitors of the present invention, including, for example, IT-839, IT-843, IT-848, and IT-878, and assessed for IG50 in the CellTiter Glo 2.0 assay.
(§2) The cells were cultured in an atmosphere of 37° C., 5% CO2 and 95% humidity. All culture media and FBS were purchased from GIBCO, Hyclone or Sigma, USA. The media used for cell culture is described in the table below.
(§3) The cells were harvested during the logarithmic growth period and counted. Cell concentrations were adjusted to the appropriate number in appropriate medium and 90 μl cell suspensions were added to 96-well plates. When cells were added, the plates were shaken gently to distribute the cells evenly. Cells were incubated at 37° C. and 5% CO2.
(§4) 3× serial dilutions of test compound stock solutions with respective solvents were prepared. The stock solutions were diluted with culture medium to generate 10× working solutions of the test compounds. 10 μl of the 10× test compound solutions were added to each well in triplicate for each concentration. Plates were incubated for 72 hours in a humidified incubator at 37° C. and 5% CO2.
(§5) CellTiter-Glo (CTG) solution was thawed and equilibrated to room temperature. 50 μl of CTG were added to each well and the contents were mixed for 2 minutes on a plate shaker. Cells were incubated for 10 minutes before luminescence signal was recorded using Envision.
(§6) Cell viability was plotted with GraphPad Prism version 5 and the IG50 was calculated for each cell line. The graphical curves were fitted using a nonlinear regression model with a sigmoidal dose response. IG50 is the concentration of test drug where 100×T/C=50 (the optical density of the test well after a 3-day period of exposure to test drug is T; the control optical density is C).
A general note: Cellular ATP, detected with luciferase, serves as a proxy for viable cell number.

For another assay, the system named is PANC-1. Briefly: CellTiter-Glo IG50, Example 8, PANC-1. The format is cell-based. The following applies: Homo sapiens, PANC-1, 72 hours. Here is the method:
as §1, §2, §3, §4, §5, §6

The subject of a further assay is MIAPACA-2. Briefly: CellTiter-Glo IG50, Example 8, MIAPACA-2. The format is cell-based. Particulars: Homo sapiens, MIA PaCa-2, MIAPACA-2, 72 hours. Here is the method:
as §1, §2, §3, §4, §5, §6

For assay [1], the system named is PLC/PRF/5. Briefly: CellTiter-Glo IG50, Example 8, PLC/PRF/5. The following applies: Homo sapiens, PLC/PRF/5, 72 hours. Format: cell-based. As to the method:
as §1, §2, §3, §4, §5, §6

Assay [2] concerns HepG2. Briefly: CellTiter-Glo IG50, Example 8, HepG2. The format is cell-based. Particulars: Homo sapiens, HepG2, 72 hours. Here is the method: as §1, §2, §3, §4, §5, §6
Assay [3] relates to Hep3B. Description: CellTiter-Glo IG50, Example 8, Hep3B. Format: cell-based. The following applies: Homo sapiens, 72 hours. Here is the method: as §1, §2, §3, §4, §5, §6
A further assay deals with HCT116. Briefly: CellTiter-Glo IG50, Example 8, HCT116. The following applies: Homo sapiens, HCT-116, HCT116, 72 hours. The format is cell-based. Here is the method:
as §1, §2, §3, §4, §5, §6

A further assay deals with HT-29. Description: CellTiter-Glo IG50, Example 8, HT-29. Particulars: Homo sapiens, HT-29, 72 hours. Format: cell-based. As to the method:
as §1, §2, §3, §4, §5, §6

Another assay has as its system LoVo. Briefly: CellTiter-Glo IG50, Example 8, LoVo. The format is cell-based. The following applies: Homo sapiens, 72 hours. Here is the method: as §1, §2, §3, §4, §5, §6
The subject of the next assay is MCF-7. Briefly: CellTiter-Glo IG50, Example 8, MCF-7. Format: cell-based. The following applies: Homo sapiens, MCF7, MCF-7, 72 hours. Here is the method:
as §1, §2, §3, §4, §5, §6

A further assay deals with MDA-MB-231. Briefly: CellTiter-Glo IG50, Example 8, MDA-MB-231. Format: cell-based. The following applies: Homo sapiens, MDA-MB-231, 72 hours. Here is the method: as §1, §2, §3, §4, §5, §6
For a further assay, the system named is T47D. Briefly: CellTiter-Glo IG50, Example 8, T47D. The format is cell-based. Particulars: Homo sapiens, 72 hours. Here is the method: as §1, §2, §3, §4, §5, §6
In the next assay the test system is AGS. Briefly: CellTiter-Glo IG50, Example 8, AGS. The format is cell-based. Particulars: Homo sapiens, 72 hours. As to the method: as §1, §2, §3, §4, §5, §6
The subject of a further assay is MKN45. Briefly: CellTiter-Glo IG50, Example 8, MKN45. Format: cell-based. The following applies: Homo sapiens, MKN-45, MKN45, 72 hours. Here is the method: as §1, §2, §3, §4, §5, §6
For another assay, the system named is KATO III. Briefly: CellTiter-Glo IG50, Example 8, KATO III. Format: cell-based. Particulars: Homo sapiens, 72 hours. As to the method:
as §1, §2, §3, §4, §5, §6

Assay [4] has as its system HepG2. Briefly: CellTiter-Glo IG50, Example 9 HCC panel, HepG2. The format is cell-based. Particulars: Homo sapiens, HepG2, 72 hours. As to the method: as §3, §4, §5, §6, §2
(§7) Following the cell culture protocol and data analysis methods described in Example 8, the following IG50 results (in μM) were observed: […]

Assay [5] deals with Hep3B. Briefly: CellTiter-Glo IG50, Example 9 HCC panel, Hep3B. The format is cell-based. The following applies: Homo sapiens, 72 hours. Here is the method: as §3, §4, §5, §6, §2, §7
For assay [6], the system named is PLC/PRF/5. Description: CellTiter-Glo IG50, Example 9 HCC panel, PLC/PRF/5. The following applies: Homo sapiens, PLC/PRF/5, 72 hours. Format: cell-based. As to the method: as §3, §4, §5, §6, §2, §7
In the next assay the test system is HUH7. Description: CellTiter-Glo IG50, Example 9 HCC panel, HUH7. The format is cell-based. The following applies: Homo sapiens, Huh-7, HUH7, 72 hours. Here is the method: as §3, §4, §5, §6, §2, §7
For the next assay, the system named is JHH5. Briefly: CellTiter-Glo IG50, Example 9 HCC panel, JHH5. Format: cell-based. The following applies: JHH5, 72 hours. As to the method:
as §3, §4, §5, §6, §2, §7

The subject of the next assay is PBMC. Briefly: CellTiter-Glo IG50, Example 9 HCC panel, PBMC. The format is cell-based. Particulars: 72 hours. As to the method:
as §3, §4, §5, §6, §2, §7

A further assay has as its system SNU878. Briefly: CellTiter-Glo IG50, Example 9 HCC panel, SNU878. Particulars: SNU878, 72 hours. The format is cell-based. As to the method: as §3, §4, §5, §6, §2, §7

pIC50: −log10 of the molar value.

What is called pIC50 is −log10 of the IC50, conventionally taken in molar units. Regarding `O=C(O)CCCCOc1ccc2cc3c(=O)[nH]c(=O)nc-3oc2c1Cl` [compound 54], the pIC50 is greater than 5.30 on c-Rel protein and greater than 4.70 in the assay on NF-κB.
As to `CCCCCOc1ccc2cc3c(=O)[nH]c(=O)nc-3oc2c1Cl` [IT-843], the pIC50 was less than 4.80 in the assay with Capan-1; 5.26 in the assay with PANC-1; 4.99 with MIAPACA-2; less than 4.80 in the assay with PLC/PRF/5 [1]; 5.40 in the assay on HepG2 [2]; 5.85 in the assay with Hep3B [3]. The pIC50 in the assay on HCT116 is 5.03; in the assay with HT-29 it was 5.18; with LoVo it was 5.54; in the assay with MCF-7, 5.17; with MDA-MB-231, 5.57; in the assay on T47D, 5.30. Further, the pIC50 is 5.35 in the assay on AGS; less than 4.80 in the assay with MKN45; less than 4.80 with KATO III; 5.34 with HepG2 [4]; 5.44 in the assay on Hep3B [5]; less than 4.80 in the assay with PLC/PRF/5 [6]. Moreover, the pIC50 in the assay with HUH7 was 5.29; in the assay on JHH5, 4.88; with PBMC it was 5.96; with SNU878, less than 4.80.
Regarding `COCCCCOc1ccc2cc3c(=O)[nH]c(=O)nc-3oc2c1Cl` [IT-878], the pIC50 is less than 4.80 with Capan-1; less than 4.80 with PANC-1; 4.75 with MIAPACA-2; less than 4.80 in the assay on PLC/PRF/5 [1]; less than 4.80 in the assay with HepG2 [2]; 5.46 in the assay with Hep3B [3]. Also, the pIC50 with HCT116, in the assay on HT-29, in the assay with LoVo, in the assay with MCF-7, with MDA-MB-231 and with T47D was less than 4.80 in each case. Besides, the negative logarithm of the IC50 (pIC50) in the assay with AGS, in the assay with MKN45 and in the assay on KATO III was less than 4.80 in each case.

The values above are taken from patent US11083729B2, “Methods of treating cancer with small molecule NF-κB inhibitors” (ImmuneTarget, Inc., priority 2017, dated 2021).
